These results are taken from ChEMBL document CHEMBL3872227, “Discovery of novel xanthine compounds targeting DPP-IV and GPR119 as anti-diabetic agents” (Eur J Med Chem, 2016).

For data set [1], the target named is T1, Glucose-dependent insulinotropic receptor (Homo sapiens, UniProt Q8TDV5).
T1 sequence (Q8TDV5 whole entry): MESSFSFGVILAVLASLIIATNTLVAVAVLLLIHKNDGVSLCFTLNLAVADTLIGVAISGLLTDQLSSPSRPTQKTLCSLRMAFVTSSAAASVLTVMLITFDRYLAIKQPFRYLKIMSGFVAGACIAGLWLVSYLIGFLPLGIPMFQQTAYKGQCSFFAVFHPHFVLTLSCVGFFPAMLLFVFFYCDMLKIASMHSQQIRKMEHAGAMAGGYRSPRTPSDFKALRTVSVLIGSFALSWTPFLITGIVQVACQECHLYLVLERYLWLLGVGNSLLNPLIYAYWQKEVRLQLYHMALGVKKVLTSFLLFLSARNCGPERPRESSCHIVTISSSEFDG
Kind of data set: Agonist activity at CREB-LBD and GAL4-DBD fused human GPR119 expressed in HEK293 cells by luciferase reporter gene assay. It counts as functional, cell-based.

Data set [2] deals with T2, Glucose-dependent insulinotropic receptor (Homo sapiens) (UniProt Q8TDV5).
T2 sequence (whole entry): T1 sequence (Q8TDV5 whole entry)
Kind of data set: Agonist activity at CREB-LBD and GAL4-DBD fused human GPR119 expressed in HEK293 cells at 1 uM by luciferase reporter gene assay relative to AR231453. The data set is classed as functional, cell-based.

In data set [3] the target is Dipeptidyl peptidase 8/9 (Homo sapiens) (UniProt Q6V1X1+Q86TI2). Kind of data set: Inhibition of full length recombinant human DPP-8/9 expressed in HEK293 cells at 10 uM incubated for 1 hr. It counts as cell-based.
Data set [4] in a line: Metabolic stability in mouse liver microsomes at 1 umol/L after 30 mins by LC/MS/MS method. The data set is classed as ADME. The settings on record: 0.5 h, 1 µM.

Dipeptidyl peptidase 8/9 (Homo sapiens), sequence (Q6V1X1 whole entry, looked up): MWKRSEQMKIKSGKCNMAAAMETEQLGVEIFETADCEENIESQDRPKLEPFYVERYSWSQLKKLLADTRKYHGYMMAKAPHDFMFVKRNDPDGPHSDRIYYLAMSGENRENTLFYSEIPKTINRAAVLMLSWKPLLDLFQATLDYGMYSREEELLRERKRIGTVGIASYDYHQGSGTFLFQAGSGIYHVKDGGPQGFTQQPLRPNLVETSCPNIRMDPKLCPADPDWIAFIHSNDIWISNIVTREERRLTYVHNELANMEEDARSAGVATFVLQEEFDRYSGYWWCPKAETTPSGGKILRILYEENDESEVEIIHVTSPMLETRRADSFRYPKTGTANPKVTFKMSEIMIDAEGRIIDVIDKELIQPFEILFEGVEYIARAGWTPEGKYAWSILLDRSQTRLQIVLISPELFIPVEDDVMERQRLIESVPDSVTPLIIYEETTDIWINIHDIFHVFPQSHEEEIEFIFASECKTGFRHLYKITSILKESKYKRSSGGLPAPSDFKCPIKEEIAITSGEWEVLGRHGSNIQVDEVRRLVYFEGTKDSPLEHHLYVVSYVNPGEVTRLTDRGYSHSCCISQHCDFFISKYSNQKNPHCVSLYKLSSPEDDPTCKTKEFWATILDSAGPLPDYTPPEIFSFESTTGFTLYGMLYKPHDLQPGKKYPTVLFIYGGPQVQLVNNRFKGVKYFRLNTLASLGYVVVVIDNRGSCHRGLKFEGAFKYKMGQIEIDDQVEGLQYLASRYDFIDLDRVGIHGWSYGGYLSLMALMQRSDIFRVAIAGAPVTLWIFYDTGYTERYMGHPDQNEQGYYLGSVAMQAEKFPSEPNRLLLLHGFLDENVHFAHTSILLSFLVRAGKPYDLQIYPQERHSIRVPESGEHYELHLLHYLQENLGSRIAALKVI
Dipeptidyl peptidase 8/9 (Homo sapiens), sequence (Q86TI2 whole entry, looked up): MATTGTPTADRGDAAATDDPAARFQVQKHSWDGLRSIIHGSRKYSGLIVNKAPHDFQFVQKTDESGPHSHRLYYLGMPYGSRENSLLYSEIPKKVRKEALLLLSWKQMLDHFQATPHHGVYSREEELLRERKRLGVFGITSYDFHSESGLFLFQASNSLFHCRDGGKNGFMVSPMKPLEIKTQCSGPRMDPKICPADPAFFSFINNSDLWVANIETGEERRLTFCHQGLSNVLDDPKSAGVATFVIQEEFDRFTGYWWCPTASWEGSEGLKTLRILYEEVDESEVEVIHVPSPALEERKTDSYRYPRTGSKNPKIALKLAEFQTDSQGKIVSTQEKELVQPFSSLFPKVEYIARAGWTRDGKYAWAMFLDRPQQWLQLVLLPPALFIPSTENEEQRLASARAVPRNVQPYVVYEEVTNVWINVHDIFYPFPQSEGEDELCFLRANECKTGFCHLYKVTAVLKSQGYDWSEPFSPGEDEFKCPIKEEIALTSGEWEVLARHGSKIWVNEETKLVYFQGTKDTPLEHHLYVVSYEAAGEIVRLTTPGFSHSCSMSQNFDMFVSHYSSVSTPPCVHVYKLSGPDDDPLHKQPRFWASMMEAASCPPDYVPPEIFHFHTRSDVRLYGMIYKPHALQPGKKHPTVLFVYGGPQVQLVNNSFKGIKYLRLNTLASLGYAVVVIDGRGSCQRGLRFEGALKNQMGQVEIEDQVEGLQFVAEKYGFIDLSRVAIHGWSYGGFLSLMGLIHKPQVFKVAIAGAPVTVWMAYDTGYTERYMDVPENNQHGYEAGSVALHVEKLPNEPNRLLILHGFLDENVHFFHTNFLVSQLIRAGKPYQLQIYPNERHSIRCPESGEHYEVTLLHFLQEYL

The molecule `CC(C)c1noc(C2CCN(c3ncnc(Nc4ccc(S(C)(=O)=O)cc4F)c3[N+](=O)[O-])CC2)n1` returned an EC50 in data set [1] of 0.7 µM. This counts as sub-micromolar. `CC#CCn1c(N2CCC[C@@H](N)C2)nc2c1c(=O)n(CCCN1CCC(C(=O)OCCC)CC1)c(=O)n2C`: the Activity in data set [2] was 31.9%. As to `CC#CCn1c(N2CCC[C@@H](N)C2)nc2c1c(=O)n(CCCCN1CCC(C(=O)OC(C)C)CC1)c(=O)n2C`, the Activity in data set [2] stood at 9.8%.

In data set [2], `CC#CCn1c(N2CCC[C@@H](N)C2)nc2c1c(=O)n(CCCN1CCC(C(=O)OC3CCCCC3)CC1)c(=O)n2C` displayed an Activity of 29.9%. Turning to `CC#CCn1c(N2CCC[C@@H](N)C2)nc2c1c(=O)n(CCCN1CCC(C(=O)OCC)CC1)c(=O)n2C`, in data set [3], the inhibition came out at 12.5%. Moreover, the Activity in data set [2] came to 51.4%. The corresponding values for `CC#CCn1c(N2CCC[C@@H](N)C2)nc2c1c(=O)n(CCCN1CCC(C(=O)OC(C)C)CC1)c(=O)n2C` are 16% and 60.4%. In the case of `CC#CCn1c(N2CCC[C@@H](N)C2)nc2c1c(=O)n(CCCN1CCC(C(=O)Oc3ccccc3)CC1)c(=O)n2C`, the inhibition in data set [3] amounted to 26.3%. This molecule also had an Activity in data set [2] of 70.7%. The molecule `CC#CCn1c(N2CCC[C@@H](N)C2)nc2c1c(=O)n(CCCN1CCC(C(=O)OC3CCC3)CC1)c(=O)n2C` showed an Activity in data set [2] of 54.8%.

Take `CC#CCn1c(N2CCC[C@@H](N)C2)nc2c1c(=O)n(CCCC1CCN(C(=O)OC(C)C)CC1)c(=O)n2C`: the inhibition in data set [3] is 36.8%. Further, in data set [2], the Activity came out at 66.1%. On to `CC#CCn1c(N2CCC[C@@H](N)C2)nc2c1c(=O)n(CCCN1CCC(C(=O)Nc3ccc(F)cc3)CC1)c(=O)n2C`, for which, in data set [2], the Activity amounted to 16.2%. `CC#CCn1c(N2CCC[C@@H](N)C2)nc2c1c(=O)n(CCCN1CCC(C(=O)OC)CC1)c(=O)n2C`: in data set [3], the inhibition came to 21.1%. The same molecule displayed an Activity in data set [2] of 74.5%. As to `CC#CCn1c(N2CCC(N)CC2)nc2c1c(=O)n(CCCN1CCC(C(=O)OC(C)C)CC1)c(=O)n2C`, the Activity in data set [2] was determined as 14.5%. On to `CC#CCn1c(N2CCCNCC2)nc2c1c(=O)n(CCCN1CCC(C(=O)OC(C)C)CC1)c(=O)n2C`, for which the inhibition in data set [3] stood at 22.5%. Also, the Activity in data set [2] worked out at 69.6%. As for `CC#CCn1c(N2CCC[C@@H](N)C2)nc2c1c(=O)n(CCCN1CCC(C(=O)Nc3ccc(OC)cc3)CC1)c(=O)n2C`, in data set [2], the Activity came to 44.4%. Take `CC#CCn1c(N2CCC[C@@H](N)C2)nc2c1c(=O)n(CCCN1CCC(C(=O)Nc3ccc(C#N)cc3)CC1)c(=O)n2C`: in data set [2], the Activity came to 68.8%.

On to `CC#CCn1c(N2CCC[C@@H](N)C2)nc2c1c(=O)n(CCC1CCN(C(=O)OC(C)C)CC1)c(=O)n2C`, for which the inhibition in data set [3] worked out at 10.5%. Further, the Activity in data set [2] worked out at 69.8%. Molecule `CC#CCn1c(N2CCC[C@@H](N)C2)nc2c1c(=O)n(CCCN1CCC(C(=O)OC3CCCC3)CC1)c(=O)n2C` gave an Activity in data set [2] of 42.7%. Same read-out and setting: as for `CC#CCn1c(N2CCC[C@@H](N)C2)nc2c1c(=O)n(CCCN1CCC(C(=O)Nc3ccc(Cl)cc3)CC1)c(=O)n2C`, the figure is 18.9%; as for `CC#CCn1c(N2CCC[C@@H](N)C2)nc2c1c(=O)n(CCCN1CCC(C(=O)Nc3ccc(Br)cc3)CC1)c(=O)n2C`, 27.9%; as for `CC#CCn1c(N2CCC[C@@H](N)C2)nc2c1c(=O)n(CCN1CCC(C(=O)OC(C)C)CC1)c(=O)n2C`, 54.2%.

`CC#CCn1c(N2CC[C@@H](N)C2)nc2c1c(=O)n(CCCN1CCC(C(=O)OC(C)C)CC1)c(=O)n2C` registered an Activity in data set [2] of 63.9%. As for `CC#CCn1c(N2CCC[C@@H](N)C2)nc2c1c(=O)n(CCCCC1CCN(C(=O)OC(C)C)CC1)c(=O)n2C`, in data set [3], the inhibition turned out to be 31.6%. Moreover, in data set [2], the Activity worked out at 61.8%.

`CC#CCn1c(N2CC(N)C2)nc2c1c(=O)n(CCCN1CCC(C(=O)OC(C)C)CC1)c(=O)n2C` displayed an Activity in data set [2] of 36.5%. On to `CC#CCn1c(N2CCC[C@@H](N)C2)nc2c1c(=O)n(CCCN1CCC(C(=O)Nc3ccccc3)CC1)c(=O)n2C`, for which the inhibition in data set [3] amounted to 36.8%. For the same molecule, the Activity in data set [2] stood at 81.5%. In data set [1], a half-maximal response (EC50) required 0.95 µM. Also, the Stability entry in data set [4] is given as “Stable”. As to `CC#CCn1c(N2CCC[C@@H](N)C2)nc2c1c(=O)n(CCCN1CCC(C(=O)Nc3ccc(C)cc3)CC1)c(=O)n2C`, the Activity in data set [2] stood at 26.2%. In the case of `CC#CCn1c(N2CCC[C@@H](N)C2)nc2c1c(=O)n(CC1CCN(C(=O)OC(C)C)CC1)c(=O)n2C`, in data set [3], the inhibition is 0%. Also, the Activity in data set [2] was 79.3%. Moreover, in data set [1], the concentration for a half-maximal effect (EC50) was 1.9 µM. Regarding `CC#CCn1c(N2CCC[C@@H](N)C2)nc2c1c(=O)n(CCCN1CCC(C(=O)N(C)C)CC1)c(=O)n2C`, the inhibition in data set [3] stood at 38.1%. In data set [2], the Activity is 61.3%.
